In patent US20220193185A1, “COMBINATION OF SYNTHETIC PEPTIDES WITH AFFINITY TO THE TGF-ß RECEPTOR AND WITH AFFINITY TO THE IL-10 RECEPTOR, PHARMACEUTICAL COMPOSITION AND THEIR USE AS IMMUNOMODULATORS IN THE TREATMENT OF AUTOIMMUNE, INFLAMMATORY OR ALLERGIC DISEASES” (Universidade Federal de Uberlândia, priority 2019, published 2022):

Assays:
IFN signaling pathway = IFN signaling pathway in Jurkat-Dual reporter cells, SEAP production; format: cell-based; conditions: after 12, 24 and 48 hours; results depend on concentration
Description: (§1) In order to investigate the ability of synthetic peptides with affinity to the Interleukin-10 receptor to interfere in the NFkB, IFN and TLR4 pathways, reporter cell lines were used. To analyze whether the isolated peptides (without activation molecules) could induce any type of activation, the isolated peptides were tested in cell lines during 12, 24 and 48 hours of treatment. […] As an example, FIG. 13A, FIG. 13B, and FIG. 13C show an analysis of NFkB expression after stimulation with the synthesized IL-10 receptor affinity synthetic peptides described herein. Cells were treated for 12, 24 and 48 hours with the synthesized peptides Pep 1-IL10, Pep 2-IL10, Pep 3-IL10 and Pep 4-IL10, at different concentrations, without activating molecules. Luciferase was then measured after 12 hours of treatment (FIG. 13A), 24 hours of treatment (FIG. 13B) and 48 hours of treatment (FIG. 13C). […] TNF-α (200 ng/mL) was used as a positive control.
The most significant results will be described below. […] When cells were pretreated with IFN, although peptides at some concentrations indicated results, they were not statistically sufficient. Therefore, we cannot confirm whether they were able to interfere with pathway activation (FIGS. 17 A, B and C) in an equal or better way than the negative control (rIL-10). In the assays shown by FIGS. 16 (A, B and C) and FIGS. 17 (A, B and C), analysis of IFN expression was performed in Jurkat-Dual reporter cells. In the assays shown by FIGS. 16 A, B and C, cells were treated for 1 hour with peptides with further addition of IFN-α (104 EU/ml). Secreted Embryonic Alkaline Phosphatase (SEAP) production was measured after 12 hours of treatment (FIG. 16A), 24 hours of treatment (FIG. 16 B) and 48 hours of treatment (FIG. 16 C). In the assays shown by FIGS. 17A, B and C, cells were treated for 1 hour with IFN-α (104 EU/ml) with further addition of the peptides. SEAP production was measured after (A) 12 hours of treatment (B), 24 hours of treatment and (C) 48 hours of treatment. IFN-α (104 EU/ml) was used as a positive control and rlL-10 (0.4 ng/ml) as a negative control. *P<0.05.

[1] = aggregation behavior in solution by Dynamic Light Scattering (DLS); format: physicochemical; conditions: for measured hydrodynamic radius: IL-10 mimetic peptides in solution
NFkB pathway [2] = assay: NFkB expression in Jurkat-Dual reporter cells, luciferase (IL-10 mimetic peptides); format: cell-based; conditions: without activating molecules; 12, 24 and 48 hours; different concentrations
Description: as §1
The assay was then carried out using TNF-α as activation molecule not only in the control, but after a pretreatment with the synthesized peptides Pep 1-IL10, Pep 2-IL10, Pep 3-IL10 and Pep 4-IL10, at different concentrations. All peptides were able to modulate NFKB activation after 12, 24 and 48 hours, with different results depending on the concentrations used. […] In the assays shown by FIGS. 14 A, B and C, analysis of NFkB expression was performed in Jurkat-Dual reporter cells. Cells were treated for 1 hour with peptides and TNF-α (200 ng/ml) added. Luciferase was measured after 12 hours of treatment (FIG. 14A), 24 hours of treatment (FIG. 14B) and 48 hours of treatment (FIG. 14C).
Another assay was then performed in which cells were pretreated with TNF-α and the synthesized peptides Pep 1-IL10, Pep 2-IL10, Pep 3-IL10 and Pep 4-IL10, at different concentrations, were added later. All peptides were able to modulate NFKB activation after 12, 24 and 48 hours, with different results depending on the concentrations used. The most significant results will be described below. […] After 48 hours of treatment, Pep 1-IL-10 at a concentration of 0.001 μM (P<0.05) was the one that obtained a result with the highest statistical significance in the decrease of NFKB signaling (FIG. 15C). In the assays shown by FIGS. 15 A, B and C, analysis of NFkB expression was performed in Jurkat-Dual reporter cells. Cells were treated for 1 hour with TNF-α (200 ng/ml) and peptides were added. Luciferase was measured after 12 hours of treatment (FIG. 15A), 24 hours of treatment (FIG. 15B) and 48 hours of treatment (FIG. 15C). TNF-α (200 ng/mL) was used as a positive control and rlL-10 (recombinant Interleukin-10) (0.4 ng/mL) as a negative control. *P<0.05; **P<0.005; ***P<0.0005.

TLR4 pathway = assay: HEK-Blue hTLR4 reporter cells, SEAP production (TGF-β1 mimetic peptides); format: cell-based; conditions: peptide pretreatment 1 hour, then LPS 100 ng/mL; 12 hours
Description: Similar to the treatment using Jurkat cells, peptides in compositions with different concentrations were also tested in HEK cells to investigate their ability to interfere with the TLR4 pathway.
To ensure that the peptides could not induce any activation when tested alone (no pathway activation molecule) only the peptides were added into the cell line and SEAP production was measured after 12 hours of treatment (Figure not shown).
The assay was performed using HEK-Blue hTLR4 reporter cells (InvivoGen) to investigate the action of peptides in the TLR4 pathway. A total of 2.3×10^4 cells/well ([…]) was pretreated with […] of composition comprising at least one of the synthetic peptides at concentrations of 100 μM, 10 μM, 1 μM, and 0.1 μM for 1 hour at 37° C. ° C. in 5% CO2 followed by LPS stimulation at 100 ng/mL for 12 hours. The same stimuli were applied to cells pretreated with LPS at 100 ng/ml for 1 hour at 37° C. in 5% CO2, followed by stimuli with peptides at 100 μM, 10 μM, 1 μM and 0.1 μM for 12 hours. Stimuli were added in Quanti-blue medium and SEAP production was measured at 655 nm. As a control, peptides at the same concentrations were tested alone to investigate whether they could activate the TLR4 pathway and LPS was used as a positive control.

[3] = test system: TGF-β1 receptor on A549 cells; assay: ELISA on cells of the A549 line using anti-TGF-β1 antibody; format: binding, human
Description: The peptides described in this patent application were selected using the Phage Display (PD) methodology. The selection was performed by evaluating the ability of said peptides to recognize the TGF-β1 receptor on A549 cells, using an ELISA assay. MaxiSorp 96-well microtiter plates were coated with 1×10^6 cells diluted in PBS and incubated overnight at 4° C. Cells were blocked with 3% PBS-BSA for 1 h at 37° C., washed once with PBS and incubated with […] of each TGF-β1 mimetic peptide or 5 ng/ml of recombinant TGF-β1 for 1 h at 37° C. After washing, the plate was incubated for 1 h at 37° C. with anti-TGF-β1 antibody. The plate was washed and incubated with HRP-labeled anti-human IgG antibody for 1 h at 37° C. After washing, TMB substrate solution was added to the plate; the reaction was stopped by adding the 2N H2SO4 solution and read at 492 nm in a microplate reader.
To investigate whether the synthesized peptides could bind to cell receptors, an ELISA assay was performed on cells of the A549 line using commercial anti-TGF-β1 antibody.

[4] = test system: TFGβRII/SMAD-dependent pathway; assay: HEK-blue-TGFβ reporter cells, SEAP production; format: cell-based; conditions: tested at 0.1, 1, 10 and 100 μM; for concentrations with statistically significant activation of the SMAD-dependent pathway (SEAP): 12 hours
Description: After 12 hours of stimulation (FIG. 4A), all peptides were able to bind to the receptor.
The assay was performed in such a way that approximately 2.5×10^4 cells/well (100 μL) were treated with 100 μL of all synthetic peptides at different concentrations (100 μM, 10 μM, 1 μM and 0.1 μM) while rTGF-β1 ([…]) at 100 ng/ml was used as a positive control. After incubating the cells for 12, 24 and 48 hours at 37° C. in 5% CO2, […] of supernatant was transferred to a Greiner plate to which […] of Quanti-blue solution was added. The plate was incubated for 1 hour at 37° C. in 5% CO2 and the production of SEAP (secreted alkaline phosphatase) was detected at 655 nm. All tests were performed in triplicate.

NFkB pathway [5] = assay: NFkB expression in Jurkat cells, luciferase (TGF-β1 mimetic peptides); format: cell-based, human; conditions: peptide pretreatment 1 hour, then TNF-α, tested at 0.1-100 μM
Description: Two different cell treatments were performed using Jurkat cells to analyze NFkB expression after 12, 24 and 48 hours. In the first test, Jurkat cells were treated only with peptides (no pathway activating molecule) at different concentrations to analyze the ability of each peptide to induce NFkB expression (Figure not shown). None of the tested concentrations induced any type of pathway activation.
The assay was carried out in such a way that a total of 3×10^5 cells/well ([…]) was pretreated with […] of a composition comprising one of the synthetic peptides in concentrations of 100 μM, 10 μM, 1 μM, and 0.1 μM for 1 hour at 37° C. in 5% CO2, followed by stimulation with TNF-α (200 ng/ml) for 12, 24 and 48 hours. The same stimuli were applied to cells pretreated with TNF-α (200 ng/ml) for 1 hour at 37° C. in 5% CO2 followed by stimulation with peptides at 100 μM, 10 μM, 1 μM and 0.1 μM for 12, 24 and 48 hours. Then, […] of supernatant was transferred to a white plate and Quanti-Luc reagent was used to measure the luciferase product. As a control, the peptides were tested at the same concentrations, without any pathway activating molecule, to investigate whether they could activate the NFkB pathway. TNF-α (200 ng/mL) was used as a positive control and rIL-10 (0.4 ng/mL) as a negative control. […].

| Substance | modulation of the activation of the IFN signaling pathway (IFN signaling pathway) | measured hydrodynamic radius [1] [nm] | induction of NFkB expression by peptides alone (NFkB pathway [2]) | concentrations with statistically significant reduction of TLR4 pathway activation (TLR4 pathway) | recognition of receptor-bound peptide by anti-TGF-β1 antibody compared to recombinant TGF-β1 [3] | concentrations with statistically significant activation of the SMAD-dependent pathway (SEAP) [4] | concentrations with statistically significant decrease of NFKB pathway activation vs TNF-α control (NFkB pathway [5]; 24 hours) | concentrations with statistically significant decrease of NFKB pathway activation vs TNF-α control (NFkB pathway [5]; 48 hours) | concentrations with significant maintained activation of the SMAD-dependent pathway (SEAP) ([4]; 24 hours) [µM] | concentrations with significant maintained activation of the SMAD-dependent pathway (SEAP) ([4]; 48 hours) | hydrodynamic radius ([1]; TGF-β1 mimetic peptides in solution) [nm] |
| --- | --- | --- | --- | --- | --- | --- | --- | --- | --- | --- | --- |
| Pep 3-IL-10: synthetic peptide with affinity to the Interleukin-10 receptor, SEQ ID NO: 11 (HCFDTQRMEFRMPPGG) | able to modulate the activation of the IFN signaling pathway | 0.79 | not able to induce any response |  |  |  |  |  |  |  |  |
| Pep 4-IL-10: synthetic peptide with affinity to the Interleukin-10 receptor, SEQ ID NO: 12 (HCMTGSRATFPSAPGG) | able to modulate the activation of the IFN signaling pathway | 0.86 | not able to induce any response |  |  |  |  |  |  |  |  |
| Pep 5-TGF-β1: synthetic peptide with affinity to the TGF-β receptor, SEQ ID N 05, free of disulfide bridges (HASFLPASGLSGGGS) |  |  |  | 1 µM and 10 µM | recognized as statistically different | 0.1 μM, 1 μM, 10 μM and 100 μM | 0.1 μM; 1 μM and 100 μM | 0.1 μM; 1 μM and 10 μM |  |  |  |
| Pep 6-TGF-β1: synthetic peptide with affinity to the TGF-β receptor, SEQ ID N 06, free of disulfide bridges (HASKLQRSEPSGGGS) |  |  |  | 1 µM | recognized as statistically different | 0.1 μM, 10 μM and 100 μM | 0.1 µM |  | 100 | 0.1 µM and 1 µM |  |
| Pep 7-TGF-β1: synthetic peptide with affinity to the TGF-β receptor, SEQ ID N 07, free of disulfide bridges (HASTIASTLHSGGGS) |  |  |  | 0.1 μM; 1 μM and 10 μM | recognized as statistically different | 0.1 μM: 1 μM; 10 μM and 100 μM | 1 µM and 100 µM | 1 µM |  |  | 2.94 |
